Experimental findings from US20260258087A1, “PHARMACEUTICAL COMPOSITION FOR PREVENTING OR TREATING HEPATITIS B” (GWANGJU INSTITUTE OF SCIENCE AND TECHNOLOGY, priority 2022, published 2026) are described below.

One data set deals with HBV. It is filed as cell-based, Hepatitis B virus. As to conditions: HepG2-NTCP cells. As for the experimental part: HepG2 cells are representative cells that have immortalized human liver cells, and HepG2-NTCP cells refer to cells that overexpress sodium-taurocholate cotransporting polypeptide (NTCP). HepG2-NTCP cells are representative cells used to confirm the effect of inhibiting HBV host invasion.
HepG2-NTCP cells were grown in DMEM medium containing 10% FBS, penicillin (100 U), and streptomycin (0.1 mg/mL) at 37° C. with […]. […] The HepG2-NTCP cells were incubated with cyclic peptides in 12-well plates for 2 hours. Afterwards, the cells were infected by treating HBV particles (2×10^6 virus/mL) and cyclic peptide together and cultured for 3 hours. After removing the medium containing the virus, the cells were cultured for 16 hours. After the cells were treated with cyclic peptide, intracellular HBV DNA was extracted, purified, and quantified using a gene amplification test. To isolate HBV DNA from host cells, cells were lysed with cell lysis buffer (50 mM Tris-HCl, pH 7.5, 1 mM EDTA, 1% NP40) for 10 minutes on ice. […]. Micrococcal nuclease was inactivated by adding EGTA to a final concentration of […]. Afterwards, intracellular DNA of HBV was extracted using the G-SPIN™ set. […]
In vitro HBV entry inhibition assay based on quantification of intracellular DNA of HBV was performed. […]
The IC50 values are expressed as mean±SD. […]

The nature of data set [1]: Caco-2 permeability assay. As to conditions: human.
Method: Caco-2 permeability assay was performed in triplicate. A 10 μM sample was dissolved in 1% (v/v) DMSO/HBSS solution, and 100 μM verapamil in Hank's Balanced Salt Solution (HBSS) buffer was used as a P-glycoprotein inhibitor. Inserts with Caco-2 cells were pre-incubated with verapamil for 30 min at 37° C., and then incubated for 2 hours at 37° C. without shaking. Efflux ratio was calculated as A to B permeability/B to A permeability. Aliquots (20 μL) were collected at each time point (0.5, 1, 1.5, and 2 hours). Experiments were performed in duplicate.

For Cyclosporine A [CsA], the “HBV inhibition (%)” value in the data set with HBV (1 μM, intracellular HBV DNA, n=3) was 83 ± 8%. The IC50 in the data set with HBV (mean±SD, read-out: In vitro HBV entry inhibition (IC50)) was found to be 400 ± 30 nM.

On to `CN(C)C(=O)C(CCN1CCC(O)(c2ccc(Cl)cc2)CC1)(c1ccccc1)c1ccccc1` [loperamide], for which, in data set [1] (Caco-2), the Papp A→B at 2 h, 10 μM came out at 2.9 ± 2 ×10⁻⁶ cm/s; the Papp B→A at 2 h, 10 μM is 27.5 ± 1.6 ×10⁻⁶ cm/s; the efflux ratio at 2 h, 10 μM worked out at 10. The same molecule came in with a recovery at 2 h, 10 μM in data set [1] (Caco-2, A to B % recovery, A to B) of 88 ± 6%. Besides, in data set [1] (Caco-2, A to B with verapamil % recovery, A to B, 100 μM verapamil), the recovery at 2 h, 10 μM worked out at 78 ± 1%. In data set [1] (Caco-2, B to A % recovery, B to A), the recovery at 2 h, 10 μM is 85 ± 1%.
